Test results: patent US9421237B2, “Tripeptide boronic acid or boronic ester, preparative method and use thereof” (PEKING UNIVERSITY, priority 2009, dated 2016)

Experiments:
[1] = tested on: HL-60 human leukemia cell; test: Preliminary anti-tumor screening in vitro, MTT method; format: cell-based; parameters: key to Test results: +++: inhibition rates at three doses are greater than 50%; ++: inhibition rates at two doses are greater than 50%; +: inhibition rate at one dose is greater than 50%; conditions: HL-60, MTT; for Test results: number of doses with inhibition > 50%; for inhibition at 0.05 µM / inhibition at 0.5 µM / inhibition at 5 µM: Homo sapiens, read-out: Inhibition rate %
Method in brief: (§1)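 In vitro cytotoxicity by routine methods: MTT read-out for HL-60 cells, SRB read-out for BGC-823, Bel-7402 and KB cells.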

[2] = target: T1, 20S proteasome extracted from rat liver, trypsin-like (TL) activity (Rattus norvegicus, UniProt P40112+Q9JHW0); test: Proteasome inhibition, trypsin-like (TL) activity, fluorescent peptide Z-Ala-Arg-Arg-AMC; format: biochemical; conditions: rat liver 20S proteasome, 37° C., 1 h; read-out: T-L (IC50)
T1 construct: 20S proteasome extracted from rat liver; from tissue; host or cells: rat liver
Method in brief: (§2)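 Rat liver 20S proteasome (1 μg) incubated 1 h at 37 °C with compounds, 50 μM fluorogenic peptide and 20 mM Tris-HCl. AMC release read at 380/440 nm and βNA release at 335/410 nm. Inhibition rate calculated against a 0.1% DMSO solvent control.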

[3] = tested on: BGC-823 human gastric cancer cell; test: Preliminary anti-tumor screening in vitro, SRB method; format: cell-based; parameters: key to Test results: +++: inhibition rates at three doses are greater than 50%; ++: inhibition rates at two doses are greater than 50%; +: inhibition rate at one dose is greater than 50%; conditions: BGC-823, SRB; for Test results: number of doses with inhibition > 50%; for inhibition at 0.05 µM / inhibition at 0.5 µM / inhibition at 5 µM: Homo sapiens, read-out: Inhibition rate %
Method in brief: as §1

[4] = tested on: KB human nasopharyngeal carcinoma cell; test: as above; format: cell-based; parameters: key to Test results: +++: inhibition rates at three doses are greater than 50%; ++: inhibition rates at two doses are greater than 50%; +: inhibition rate at one dose is greater than 50%; conditions: for inhibition at 0.05 µM / inhibition at 0.5 µM / inhibition at 5 µM: Homo sapiens, read-out: Inhibition rate %; for Test results: number of doses with inhibition > 50%
Method in brief: as §1

[5] = tested on: Bel-7402 human hepatocarcinoma cell; test: as above; format: cell-based; parameters: key to Test results: +++: inhibition rates at three doses are greater than 50%; ++: inhibition rates at two doses are greater than 50%; +: inhibition rate at one dose is greater than 50%; conditions: Bel-7402, SRB; for Test results: number of doses with inhibition > 50%; for inhibition at 0.05 µM / inhibition at 0.5 µM / inhibition at 5 µM: Homo sapiens, read-out: Inhibition rate %
Method in brief: as §1

[6] = target: T2, 20S proteasome extracted from rat liver, chymotryptic-like (CT-L) activity (Rattus norvegicus, UniProt P18421+P28075); test: Proteasome inhibition, chymotryptic-like (CT-L) activity, fluorescent peptide Suc-leu-leu-Val-Tyr-AMC; format: biochemical; conditions: rat liver 20S proteasome, 37° C., 1 h
T2 construct: 20S proteasome extracted from rat liver; from tissue; host or cells: rat liver
Method in brief: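 Rat liver 20S proteasome (1 μg) incubated 1 h at 37° C with compounds and 50 μM Suc-Leu-Leu-Val-Tyr-AMC in 20 mM Tris-HCl.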

[7] = tested on: murine H22 cells; test: In vivo anti-tumor activity, H22 tumor in ICR mice, oral administration; conditions: for Animal numbers Start/End / Body weight (g) (X ± SD): ICR mice with H22; for Inhibition rate (%) / Tumor weight (g) (X ± SD): tumors weighed at 12th day
Protocol: Animal: ICR mice, half male and half female (18-22 g), provided by Laboratory Animal Science Department of Peking Medical University.
Tumor cell strain: murine H22 cells were provided by cell bank of pharmacological group of the State Key Laboratory of Natural and Biomimetic Drugs.
Method: Murine tumor cells were taken to be treated, and diluted to 5×10^6 cells/ml after treatment. The diluted tumor cells solution was inoculated to the left forelimb oxter of the mice with 0.2 ml/mouse under aseptic condition. 24 h after inoculation, the mice were divided into groups and orally administered once per day to the mice in each group for 10 days. At the 12th day, the tumors were peeled off and weighed, and the average weight of the tumor, standard deviation (SD) and p-value of each group were calculated.

[8] = target: T3, 20S proteasome extracted from rat liver, peptidyl-glutamyl-peptide-hydrolyzing (PGPH) enzyme activity (Rattus norvegicus, UniProt P28073+Q9JHW0); test: Proteasome inhibition, PGPH activity, fluorescent peptide Z-leu-leu-Glu-βNA; format: biochemical; conditions: rat liver 20S proteasome, 37° C., 1 h
T3 construct: 20S proteasome extracted from rat liver; from tissue; host or cells: rat liver
Method in brief: as §2

[9] = 1 mg/kg orally once per day for 10 days
[10] = 2 mg/kg orally once per day for 10 days

`CC(C)C[C@H](NC(=O)[C@H](Cc1ccc2ccccc2c1)NC(=O)[C@H](CC(C)C)NC(=O)c1cnccn1)B(O)O` [Compound 6f, N-pyrazineformyl-L-leucyl-L-naphthylalanyl-L-leucine Boronic Acid] was tested, and the Test results [1] was “++”, the inhibition at 0.05 µM [1] was 1.26% and the inhibition at 0.5 µM [1] was 87.4%. For the same compound, the inhibition at 5 µM [1] was 88.6%, the IC50 [2] was over 20 nM and the Test results [3] was “+++”. For the same compound, the inhibition at 0.05 µM [3] was 80.3%, the inhibition at 0.5 µM [3] was 95.5% and the inhibition at 5 µM [3] was 96.8%. For the same compound, the inhibition at 0.05 µM [4] was 32.1%, the inhibition at 0.5 µM [4] was 95.7% and the inhibition at 5 µM [4] was 97.8%. For the same compound, the Test results [4] was “++”, the Test results [5] was “++” and the inhibition at 0.05 µM [5] was 39.4%. For the same compound, the inhibition at 0.5 µM [5] was 90.6%, the inhibition at 5 µM [5] was 93.7% and the IC50 [6] was 0.079 ± 0.011 nM. For the same compound, the “Animal numbers Start/End” value [7, 9] was 8/6, the “Body weight (g) (X ± SD)” value [7, 9] was 1.49 ± 1.07 g and the “Inhibition rate (%)” value [7, 9] was 51.67%. For the same compound, the “Tumor weight (g) (X ± SD)” value [7, 9] was 0.60 ± 0.16 g, the “Animal numbers Start/End” value [7, 10] was 8/5 and the “Body weight (g) (X ± SD)” value [7, 10] was 0.04 ± 4.29 g. For the same compound, the “Inhibition rate (%)” value [7, 10] was 55.34%, the “Tumor weight (g) (X ± SD)” value [7, 10] was 0.56 ± 0.17 g and the IC50 [8] was 3.63 ± 1.67 nM.
For `CC(C)C[C@H](NC(=O)[C@H](Cc1ccc2ccccc2c1)NC(=O)[C@H](Cc1ccccc1)NC(=O)c1cnccn1)B(O)O` [Compound 6g, N-pyrazineformyl-L-phenylalanyl-L-naphthylalanyl-L-leucine Boronic Acid], the Test results [1] was “++”, the inhibition at 0.05 µM [1] was 5.68% and the inhibition at 0.5 µM [1] was 87.8%. For the same compound, the inhibition at 5 µM [1] was 88.6%, the IC50 [2] was over 20 nM and the Test results [3] was “+++”. The inhibition at 0.05 µM [3] was 76.9%, the inhibition at 0.5 µM [3] was 95.5% and the inhibition at 5 µM [3] was 97.1%. The inhibition at 0.05 µM [4] was 59.4%, the inhibition at 0.5 µM [4] was 96% and the inhibition at 5 µM [4] was 96.7%. The Test results [4] was “+++”, the Test results [5] was “++” and the inhibition at 0.05 µM [5] was 37.9%. It also gave an inhibition at 0.5 µM [5] of 72.2%, an inhibition at 5 µM [5] of 93.4% and an IC50 [6] of 0.111 ± 0.05 nM. For the same compound, the “Animal numbers Start/End” value [7, 9] was 8/8, the “Body weight (g) (X ± SD)” value [7, 9] was -1.28 ± 2.83 g and the “Inhibition rate (%)” value [7, 9] was 34.24%. The “Tumor weight (g) (X ± SD)” value [7, 9] was 0.82 ± 0.36 g, the “Animal numbers Start/End” value [7, 10] was 8/8 and the “Body weight (g) (X ± SD)” value [7, 10] was -0.53 ± 2.58 g. The “Inhibition rate (%)” value [7, 10] was 56.33%, the “Tumor weight (g) (X ± SD)” value [7, 10] was 0.54 ± 0.28 g and the “Toxicity in the in vivo anti-tumor test, compared with bortezomib (PS341)” value ([7]; ICR mice with H22, oral) was “even lower”. The IC50 [8] was 3.8 ± 0.983 nM.
